Measured values from patent US8084452B2, “Substituted enaminocarbonyl compounds used as insecticides” (Bayer Cropscience AG, priority 2006, dated 2011).

Tests used:
Type in all cases: in vivo
[1] = test system: green peach aphid (Myzus persicae); assay: Myzus test (MYZUPE spray treatment); details: 500 g/ha, spray on Chinese cabbage leaf discs
Procedure: Myzus Test (MYZUPE Spray Treatment)
(§1) To produce a suitable preparation of active compound, 1 part by weight of active compound is mixed with the stated amounts of solvent and emulsifier, and the concentrate is diluted with emulsifier-containing water to the desired concentration.
Discs of Chinese cabbage leaves (Brassica pekinensis) which are infested by all stages of the green peach aphid (Myzus persicae) are sprayed with a preparation of active compound of the desired concentration.
After the desired period of time, the effect in % is determined 100% means that all aphids have been killed; 0% means that none of the aphids have been killed.

[2] = test system: Lucilia cuprina larvae; assay: Lucilia cuprina test (LUCICU); details: 100 ppm, treated horse meat
Procedure: Lucilia cuprina Test (LUCICU)
To produce a suitable preparation of active compound, 1 part by weight of active compound is mixed with the stated amounts of solvent, and the concentrate is diluted with water to the desired concentration.
Containers containing horse meat treated with the preparation of active compound of the desired concentration are populated with Lucilia cuprina larvae.
After the desired period of time, the kill in % is determined 100% means that all larvae have been killed; 0% means that none of the larvae have been killed.

[3] = test system: adult fleas (Ctenocephalides felis); assay: Ctenocephalides felis; oral (CTECFE); details: 100 ppm in citrated cattle blood
Procedure: Ctenocephalides felis; Oral (CTECFE)
To produce a suitable preparation of active compound, 1 part by weight of active compound is mixed with the stated amount of solvent. Part of the concentrate is diluted with citrated cattle blood, and the desired concentration is prepared.
20 unfed adult fleas (Ctenocephalides felis) are placed into a chamber whose top and bottom ends are closed with gauze. A metal cylinder whose bottom end is closed with parafilm is placed onto the chamber. The cylinder contains the blood/active compound preparation, which can be taken up by the fleas through the parafilm membrane. The blood is warmed to 37° C., but the flea chamber is at room temperature.
After the desired period of time, the kill in % is determined 100% means that all fleas have been killed; 0% means that none of the fleas have been killed.

[4] = test system: whitefly (Bemisia tabaci); assay: Bemisia tabaci (BEMITA spray treatment); details: 500 g/ha, spray on cotton leaf discs infested by larvae
Procedure: Bemisia tabaci (BEMITA Spray Treatment)
as §1
Discs of cotton leaves (Gossypium hirsutum) which are infested by larvae of the whitefly (Bemisia tabaci) are sprayed with a preparation of active compound of the desired concentration.
After the desired period of time, the effect in % is determined 100% means that all whiteflies have been killed; 0% means that none of the whiteflies have been killed.

[5] = test system: green peach aphid (Myzus persicae); assay: Myzus persicae test (MYZUPE G), watering; details: 4 ppm, cabbage plants watered
Procedure: Myzus persicae Test; (MYZUPE G)
(§2) To produce a suitable preparation of active compound, 1 part by weight of active compound is mixed with the stated amounts of solvent and emulsifier, and the concentrate is diluted with water to the desired concentration.
Cabbage plants (Brassica oleracea) which are heavily infested by the green peach aphid (Myzus persicae) are watered with a preparation of active compound of the desired concentration.
(§3) After the desired period of time, the kill in % is determined 100% means that all aphids have been killed; 0% means that none of the aphids have been killed.

[6] = test system: cotton aphid (Aphis gossypii); assay: Aphis gossypii test (APHIGO), leaf dip; details: 100 ppm, cotton leaves dipped
Procedure: Aphis gossypii Test (APHIGO)
as §1
Cotton leaves (Gossypium hirsutum) which are heavily infested by the cotton aphid (Aphis gossypii) are treated by being dipped into the preparation of active compound of the desired concentration.
as §3

[7] = test system: Boophilus microplus; assay: Boophilus microplus test (BOOPMI injection); details: 20 μg/animal injected into abdomen, 100% means no tick has laid fertile eggs
Procedure: Boophilus microplus Test (BOOPMI Injection)
To produce a suitable preparation of active compound, 1 part by weight of active compound is mixed with the stated amount of solvent, and the concentrate is diluted with solvent to the desired concentration.
The solution of active compound is injected into the abdomen (Boophilus microplus), and the animals are transferred into dishes and kept in a temperature-controlled room.
After the desired period of time, the effect in % is determined. 100% means that no tick has laid any fertile eggs.

[8] = test system: green peach aphid (Myzus persicae); assay: Myzus persicae test, hydroponic treatment (MYZUPE sys.); details: 20 ppm in water, pea plant
Procedure: Myzus persicae Test, Hydroponic Treatment (MYZUPE Sys.)
as §2
The preparation of active compound is mixed with water. The stated concentration refers to the amount of active compound per volume unit of water (mg/l=ppm). The treated water is filled into containers housing a pea plant (Pisum sativum) which is then infected with the green peach aphid (Myzus persicae).
(§4) After the desired period of time, the kill in % is determined. 100% means that all aphids have been killed; 0% means that none of the aphids have been killed.

[9] = test system: brown planthopper (Nilaparvata lugens); assay: Nilaparvata lugens test (NILALU hydroponic treatment); details: 100 g/ha (so in the source), active compound pipetted into water
Procedure: Nilanarvata lugens Test (NILALU Hydrononic Treatment)
as §1
The preparation of active compound is pipetted into water. […] The water is then infected with the brown planthopper (Nilaparvata lugens).
After the desired period of time, the effect in % is determined. 100% means that all planthoppers have been killed; 0% means that none of the planthoppers have been killed.

[10] = test system: Meloidogyne incognita; assay: Meloidogyne test (MELGIN spray treatment); details: 20 ppm, nematicidal activity by formation of galls on lettuce roots
Procedure: Meloidogyne Test (MELGIN Spray Treatment)
as §2
Containers are filled with sand, active compound solution, Meloidogyne incognita egg/larvae suspension and lettuce seeds. The lettuce seeds germinate and the plants develop. On the roots, galls are formed.
After the desired period of time, the nematicidal activity is determined by the formation of galls in %. 100% means that no galls were found; 0% means that the number of galls on the treated plants corresponds to that of the untreated controls.

[11] = test system: cotton aphid (Aphis gossypii); assay: Aphis gossypii test (APHIGO G), watering; details: 4 ppm, cotton plants watered
Procedure: Aphis gossypii Test; (APHIGO G)
as §2
Cotton plants (Gossypium hirsutum) which are heavily infested by the cotton aphid (Aphis gossypii) are watered with a preparation of active compound of the desired concentration.
as §4

Row | SMILES | Kill rate in % after 5 days [1] | Kill rate in % after 2 days [2] | Kill rate in % after 2 days [3] | Kill rate in % after 7 days [4] | Kill rate in % after 10 days [5] | Kill rate in % after 6 days [6] | Kill rate in % after 7 days [7] | Kill rate in % after 6 days [8] | Kill rate in % after 7 days [9] | Kill rate in % after 14 days [10] | Kill rate in % after 10 days [11]
1 | O=C1C=C(N(Cc2cnc(Cl)c(F)c2)CC(F)F)CO1 [Example 1, 4-[[(6-Chloro-5-fluoropyridin-3-yl)methyl](2,2-difluoroethyl)amino]furan-2(5H)-one] | 100% | 100% | 80% | 100% |  |  |  |  |  |  | 
2 | O=C1C=C(N(CCF)Cc2cnc(Cl)c(Cl)c2)CO1 [Example 2, 4-[[(5,6-Dichloropyridin-3-yl)methyl](2-fluoroethyl)amino]furan-2(5H)-one] | 100% |  |  |  | 98% | 95% | 100% | 100% | 80% | 100% | 100%
